Here are results for nine compounds from BindingDB's records for PubMed 9463480 (F. Hoffmann-La Roche, 1998).

The test has as its target Metabotropic glutamate receptor 2 (Homo sapiens, UniProt Q14416).

Metabotropic glutamate receptor 2, sequence (Q14416 whole entry): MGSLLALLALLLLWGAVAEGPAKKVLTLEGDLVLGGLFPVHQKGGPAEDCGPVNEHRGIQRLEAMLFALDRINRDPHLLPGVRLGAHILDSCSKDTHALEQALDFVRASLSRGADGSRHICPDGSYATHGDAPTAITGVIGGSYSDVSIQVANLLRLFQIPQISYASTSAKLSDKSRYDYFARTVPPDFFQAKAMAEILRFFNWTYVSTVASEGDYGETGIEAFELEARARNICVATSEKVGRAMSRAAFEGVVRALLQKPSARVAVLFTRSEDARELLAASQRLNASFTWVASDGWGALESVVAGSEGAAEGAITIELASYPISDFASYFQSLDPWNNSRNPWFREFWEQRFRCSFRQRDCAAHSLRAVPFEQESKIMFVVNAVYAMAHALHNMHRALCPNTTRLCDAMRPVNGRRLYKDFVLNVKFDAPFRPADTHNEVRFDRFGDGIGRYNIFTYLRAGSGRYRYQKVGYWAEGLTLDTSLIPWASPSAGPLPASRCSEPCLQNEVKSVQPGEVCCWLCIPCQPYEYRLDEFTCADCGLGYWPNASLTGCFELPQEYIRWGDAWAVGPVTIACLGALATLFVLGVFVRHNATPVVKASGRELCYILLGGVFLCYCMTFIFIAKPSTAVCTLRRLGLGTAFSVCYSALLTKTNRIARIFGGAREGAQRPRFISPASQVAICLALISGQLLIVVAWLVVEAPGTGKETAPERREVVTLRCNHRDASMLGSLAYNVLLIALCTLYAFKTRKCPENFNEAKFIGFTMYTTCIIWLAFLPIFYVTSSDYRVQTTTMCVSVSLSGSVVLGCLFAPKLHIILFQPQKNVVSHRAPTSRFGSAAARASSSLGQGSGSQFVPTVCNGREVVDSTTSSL

`NC(Cn1cnc2c(=O)[nH]c(=O)[nH]c21)(C(=O)O)C1CC1C(=O)O` (centres undefined) [CAS_5311260] had an inhibition constant (Ki) of 10 nM.
As to `N[C@H](C(=O)O)[C@H]1C[C@H]1C(=O)O` [L-CCG-IV], the Ki came out at 70 nM.
Under `C[C@@](N)(C(=O)O)c1ccc(C(=O)O)cc1` (racemic) stands > 10000 nM; under `C[C@](N)(C(=O)O)C1C[C@@H]1C(=O)O` (some centres undefined) [MCCG-I], > 10000 nM; under `N[C@H](C(=O)O)C1[C@@H](C(=O)O)[C@@H]1C(=O)O` (some centres undefined) [DCG-IV], 60 nM.
In the case of `N[C@@H](Cn1oc(=O)[nH]c1=O)C(=O)O` [2-amino-3-(3,5-dioxo[1,2,4]oxadiazolidin-2-yl)propionic acid] it was > 10000 nM.
Turning to `N[C@H](CP(=O)(O)O)C(=O)O` [CAS_23052-80-4], the Ki was > 10000 nM.
For `N[C@@H](CCP(=O)(O)O)C(=O)O`, the Ki is > 10000 nM.
In turn, `N[C@@]1(C(=O)O)CC[C@H](C(=O)O)C1` [1S, 3R-ACPD] came in with a Ki of 2000 nM.
